Source: patent US20240374552A1, “Compositions and Methods for Preventing or Reducing the Risk of Metabolic Syndrome” (priority 2021, published 2024)

Experiments:
rat = conditions: cited from earlier work
mice [1] = assay: Evaluation toxicity, 90-day daily intragastric administration in mice; type: in vivo; conditions: for Percentage of dead mice (%): purity min 95%
mice [2] = assay: as above; type: in vivo; conditions: for Percentage of dead mice (%): purity min 95%; remark: listed apart in the source
Protocol: To investigate the toxicity of tyrphostin AG17 the following doses were tested in mice, the animals were randomly divided into experimental groups corresponding to different doses of tyrphostin. Tyrphostin was administered intragastric via daily for 90 days, after 90 days, the mice were weighed and sacrificed by cervical dislocation.
In a second evaluation for the treatments with 5.50 mg/kg to 55.50 mg/kg of tyrphostin, using a lot tyrphostin AG17 with a minimum purity of 98% is used; the percentage of dead mice is reduced to 0% and in the case of the treatment with 100.00 mg/kg, the deaths are reduced to 10%.

mice [3] = assay: Subacute toxicity, 14-day daily intragastric administration; type: in vivo
Protocol: Animal studies in male and female mice of the CDI strain, and male rats of the Wistar strain were used.
During the quarantine period (15 days) they were kept in a chamber with conditions of (22+2° C., 55+5% humidity and a light/dark cycle of 12:12 h), with food and water ad libitum. Prior to the start of the experiment, the animals (mice and rats) were deprived of food for 4 h, and recovered 2 h after the administration of the drug.
The test animals were randomly divided into experimental groups corresponding to different doses of the drug, as shown in Table 2.

in vivo = conditions: 10 mg, t1/2 (h)
[4] = in vivo, 10 mg

In the case of `CC(C)(C)c1cc(C=C(C#N)C#N)cc(C(C)(C)C)c1O` [tyrphostin AG17, Tyrphostin AG17], the “oral LD50” value (rat) is listed as 87 mg/kg, the “Percentage of dead mice, second evaluation” value (mice [1]; 5.50 mg/kg to 55.50 mg/kg, lot with minimum purity of 98%) is listed as 0% and the “Percentage of dead mice (deaths), second evaluation” value (mice [1]; 100.00 mg/kg, lot with minimum purity of 98%) is listed as 10%. The “Percentage of dead mice (%)” value (mice [1]; T2: 0.000175 mg/Kg daily 90 days) was 0%, the “Percentage of dead mice (%)” value (mice [1]; T4: 0.0175 mg/Kg daily 90 days) was 0% and the “Percentage of dead mice (%)” value (mice [1]; T6: 0.18 mg/Kg daily 90 days) was 0%. For the same compound, the “Percentage of dead mice (%)” value (mice [1]; T10: 5.50 mg/Kg daily 90 days) was 10%, the “Percentage of dead mice (%)” value (mice [1]; T11: 17.50 mg/Kg daily 90 days) was 10% and the “Percentage of dead mice (%)” value (mice [1]; T12: 25.00 mg/Kg daily 90 days) was 0%. For the same compound, the “Percentage of dead mice (%)” value (mice [1]; T12: 25.00 mg/Kg daily 90 days, listed as tyrphostin) was “did not show any dead mice”, the “Percentage of dead mice (%)” value (mice [1]; T13: 28.00 mg/Kg daily 90 days) was 10% and the “Percentage of dead mice (%)” value (mice [1]; T14: 40.00 mg/Kg daily 90 days) was 10%. The “Percentage of dead mice (%)” value (mice [1]; T15: 50.00 mg/Kg daily 90 days) was 20%, the “Percentage of dead mice (%)” value (mice [1]; T16: 55.50 mg/Kg daily 90 days) was 20% and the “Percentage of dead mice (%)” value (mice [1]; T17: 100.00 mg/Kg daily 90 days) was 40%. For the same compound, the “Percentage of dead mice (%)” value (mice [2]; T1: 0.0001 mg/Kg daily 90 days) was 0%, the “Percentage of dead mice (%)” value (mice [2]; T3: 0.001 mg/Kg daily 90 days) was 0% and the “Percentage of dead mice (%)” value (mice [2]; T5: 0.175 mg/Kg daily 90 days) was 0%. For the same compound, the “Percentage of dead mice (%)” value (mice [2]; T7: 0.76 mg/Kg daily 90 days) was 0%, the “Percentage of dead mice (%)” value (mice [2]; T8: 1.70 mg/Kg daily 90 days) was 0% and the “Percentage of dead mice (%)” value (mice [2]; T9: 1.75 mg/Kg daily 90 days) was 0%. For the same compound, the “Signs of toxicity during 90-day treatment” value (mice [2]; doses below 1.75 mg/kg) was “no apparent signs of toxicity”, the “Death, share of the population” value (mice [3]; 100.00 mg/kg) was 40% and the “Time until recovery from lethargy” value (mice [3]; 5.50 to 55.50 mg/kg) was 12 h. For the same compound, the “Signs of subacute toxicity presented” value (mice [3]; AT1: 0.175 mg/Kg daily 14 days) was “No apparent signs”, the “Signs of subacute toxicity presented” value (mice [3]; AT2: 0.55 mg/Kg daily 14 days) was “No apparent signs” and the “Signs of subacute toxicity presented” value (mice [3]; AT3: 1.75 mg/Kg daily 14 days) was “No apparent signs”. For the same compound, the “Signs of subacute toxicity presented” value (mice [3]; AT4: 5.50 mg/Kg daily 14 days) was “Lethargy (10%)”, the “Lethargy, share of the population” value (mice [3]; AT4 group, 5.50 mg/kg) was 10% and the “Signs of subacute toxicity presented” value (mice [3]; AT5: 55.50 mg/Kg daily 14 days) was “Lethargy (20%)”. The “Lethargy, share of the population” value (mice [3]; AT5 group, 55.50 mg/kg) was 20%, the “Signs of subacute toxicity presented” value (mice [3]; AT6: 100.00 mg/Kg daily 14 days) was “Death (40%)” and the half-life (in vivo; Geometric Mean) was 80.6 h. For the same compound, the half-life (in vivo; Mean) was 82.2 h, the half-life (in vivo; Median) was 75.2 h and the “Vdapa (L), Geometric Mean” value [4] was 22.038 L. The “Vdapa (L), Mean” value [4] was 22.537 L and the “Vdapa (L), Median” value [4] was 22.494 L.
